The values below come from ChEMBL document CHEMBL4342518, “First Contact: 7-Phenyl-2-Aminoquinolines, Potent and Selective Neuronal Nitric Oxide Synthase Inhibitors That Target an Isoform-Specific Aspartate” (J Med Chem, 2020).

Data set [1] deals with Nitric oxide synthase 1 (Homo sapiens, UniProt P29475).
Data set [2] in a line: in vitro. The following applies: human, liver microsomes.
Data set [3] is described as follows: in vitro. The following applies: human, liver microsomes. This is another data set of the same source.
In data set [4] the target is Nitric oxide synthase 1 (Rattus norvegicus, UniProt P29476, D597N).
Nitric oxide synthase 1 (Rattus norvegicus, UniProt P29476, D597N), sequence (P29476 whole entry D597N): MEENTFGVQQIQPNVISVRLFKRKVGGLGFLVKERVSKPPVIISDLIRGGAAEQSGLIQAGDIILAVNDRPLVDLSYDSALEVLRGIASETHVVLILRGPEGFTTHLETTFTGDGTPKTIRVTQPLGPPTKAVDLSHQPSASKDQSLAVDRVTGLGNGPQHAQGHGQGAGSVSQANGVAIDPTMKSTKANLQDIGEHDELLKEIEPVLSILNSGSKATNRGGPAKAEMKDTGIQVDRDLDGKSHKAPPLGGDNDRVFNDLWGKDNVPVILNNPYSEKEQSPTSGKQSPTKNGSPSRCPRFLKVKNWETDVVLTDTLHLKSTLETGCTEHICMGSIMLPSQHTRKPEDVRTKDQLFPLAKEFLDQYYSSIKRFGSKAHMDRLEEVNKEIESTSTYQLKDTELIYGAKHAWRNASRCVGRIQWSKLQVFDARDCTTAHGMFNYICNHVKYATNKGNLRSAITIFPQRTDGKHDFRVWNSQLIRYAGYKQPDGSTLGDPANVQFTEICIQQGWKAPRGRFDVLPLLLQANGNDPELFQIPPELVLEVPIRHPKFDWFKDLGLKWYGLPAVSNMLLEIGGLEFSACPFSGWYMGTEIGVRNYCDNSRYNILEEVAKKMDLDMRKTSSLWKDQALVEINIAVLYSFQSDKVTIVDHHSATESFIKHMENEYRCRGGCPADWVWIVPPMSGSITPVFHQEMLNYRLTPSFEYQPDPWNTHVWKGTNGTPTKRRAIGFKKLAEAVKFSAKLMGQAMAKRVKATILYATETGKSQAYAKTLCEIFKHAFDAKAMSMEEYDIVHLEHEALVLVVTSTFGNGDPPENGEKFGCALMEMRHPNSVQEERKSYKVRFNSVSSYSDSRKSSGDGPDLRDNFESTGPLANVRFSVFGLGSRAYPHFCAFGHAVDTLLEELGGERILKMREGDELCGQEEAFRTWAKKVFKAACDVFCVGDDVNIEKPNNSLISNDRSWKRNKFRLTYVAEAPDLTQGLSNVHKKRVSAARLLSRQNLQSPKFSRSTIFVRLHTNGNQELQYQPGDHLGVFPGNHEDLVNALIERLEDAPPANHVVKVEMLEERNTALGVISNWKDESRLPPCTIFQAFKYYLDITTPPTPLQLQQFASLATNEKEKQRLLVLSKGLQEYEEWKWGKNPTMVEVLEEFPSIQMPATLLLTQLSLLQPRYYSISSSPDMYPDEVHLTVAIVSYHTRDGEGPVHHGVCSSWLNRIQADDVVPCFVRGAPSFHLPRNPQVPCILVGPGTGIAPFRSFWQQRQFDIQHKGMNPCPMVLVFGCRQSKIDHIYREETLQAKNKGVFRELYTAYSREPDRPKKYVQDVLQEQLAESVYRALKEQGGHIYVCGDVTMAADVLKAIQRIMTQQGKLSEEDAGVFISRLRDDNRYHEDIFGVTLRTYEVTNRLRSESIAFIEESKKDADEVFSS
The target of data set [5] is T1, Nitric oxide synthase 3 (Homo sapiens, UniProt P29474).
T1 sequence (P29474 whole entry): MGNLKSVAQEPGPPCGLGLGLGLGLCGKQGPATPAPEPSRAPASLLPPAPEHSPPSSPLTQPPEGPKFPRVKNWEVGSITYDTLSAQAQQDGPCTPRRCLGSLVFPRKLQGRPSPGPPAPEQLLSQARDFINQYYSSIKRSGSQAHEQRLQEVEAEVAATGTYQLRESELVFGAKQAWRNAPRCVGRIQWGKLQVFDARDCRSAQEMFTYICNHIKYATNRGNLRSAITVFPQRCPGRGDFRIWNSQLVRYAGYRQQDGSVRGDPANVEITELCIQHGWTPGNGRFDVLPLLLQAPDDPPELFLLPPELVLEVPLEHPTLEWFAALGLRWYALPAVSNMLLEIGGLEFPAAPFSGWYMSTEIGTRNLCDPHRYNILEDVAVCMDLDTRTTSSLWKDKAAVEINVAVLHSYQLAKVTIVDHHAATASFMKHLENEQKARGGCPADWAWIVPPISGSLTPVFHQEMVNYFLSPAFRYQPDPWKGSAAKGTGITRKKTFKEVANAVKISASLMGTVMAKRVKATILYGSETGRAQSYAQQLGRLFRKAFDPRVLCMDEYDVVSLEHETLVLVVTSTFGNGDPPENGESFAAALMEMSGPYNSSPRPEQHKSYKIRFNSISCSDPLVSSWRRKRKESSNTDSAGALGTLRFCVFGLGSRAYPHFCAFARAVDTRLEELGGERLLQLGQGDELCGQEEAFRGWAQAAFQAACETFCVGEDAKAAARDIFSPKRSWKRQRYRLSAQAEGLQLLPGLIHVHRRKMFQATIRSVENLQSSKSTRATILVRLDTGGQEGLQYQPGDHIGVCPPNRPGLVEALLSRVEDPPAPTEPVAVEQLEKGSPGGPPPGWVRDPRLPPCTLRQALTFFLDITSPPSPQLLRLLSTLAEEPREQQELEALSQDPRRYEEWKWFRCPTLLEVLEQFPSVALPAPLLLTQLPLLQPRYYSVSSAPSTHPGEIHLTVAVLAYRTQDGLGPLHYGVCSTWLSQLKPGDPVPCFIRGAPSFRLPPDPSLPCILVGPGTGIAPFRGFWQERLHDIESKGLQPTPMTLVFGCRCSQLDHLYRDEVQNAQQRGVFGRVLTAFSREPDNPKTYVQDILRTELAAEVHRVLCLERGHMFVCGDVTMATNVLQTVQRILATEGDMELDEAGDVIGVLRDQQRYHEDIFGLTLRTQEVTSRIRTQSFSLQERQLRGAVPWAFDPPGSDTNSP

Data set [6] in a line: in vitro. The following applies: human, liver microsomes, pH 7.4. On the technique in general: Liver microsomes are vesicles of endoplasmic reticulum, rich in cytochrome P450 enzymes.
A short description of data set [7]: in vitro. The following applies: human, liver microsomes. This is another data set of the same source.
For data set [8], the target named is Nitric oxide synthase, inducible (Homo sapiens, UniProt P35228).
Nitric oxide synthase, inducible, sequence (P35228 whole entry): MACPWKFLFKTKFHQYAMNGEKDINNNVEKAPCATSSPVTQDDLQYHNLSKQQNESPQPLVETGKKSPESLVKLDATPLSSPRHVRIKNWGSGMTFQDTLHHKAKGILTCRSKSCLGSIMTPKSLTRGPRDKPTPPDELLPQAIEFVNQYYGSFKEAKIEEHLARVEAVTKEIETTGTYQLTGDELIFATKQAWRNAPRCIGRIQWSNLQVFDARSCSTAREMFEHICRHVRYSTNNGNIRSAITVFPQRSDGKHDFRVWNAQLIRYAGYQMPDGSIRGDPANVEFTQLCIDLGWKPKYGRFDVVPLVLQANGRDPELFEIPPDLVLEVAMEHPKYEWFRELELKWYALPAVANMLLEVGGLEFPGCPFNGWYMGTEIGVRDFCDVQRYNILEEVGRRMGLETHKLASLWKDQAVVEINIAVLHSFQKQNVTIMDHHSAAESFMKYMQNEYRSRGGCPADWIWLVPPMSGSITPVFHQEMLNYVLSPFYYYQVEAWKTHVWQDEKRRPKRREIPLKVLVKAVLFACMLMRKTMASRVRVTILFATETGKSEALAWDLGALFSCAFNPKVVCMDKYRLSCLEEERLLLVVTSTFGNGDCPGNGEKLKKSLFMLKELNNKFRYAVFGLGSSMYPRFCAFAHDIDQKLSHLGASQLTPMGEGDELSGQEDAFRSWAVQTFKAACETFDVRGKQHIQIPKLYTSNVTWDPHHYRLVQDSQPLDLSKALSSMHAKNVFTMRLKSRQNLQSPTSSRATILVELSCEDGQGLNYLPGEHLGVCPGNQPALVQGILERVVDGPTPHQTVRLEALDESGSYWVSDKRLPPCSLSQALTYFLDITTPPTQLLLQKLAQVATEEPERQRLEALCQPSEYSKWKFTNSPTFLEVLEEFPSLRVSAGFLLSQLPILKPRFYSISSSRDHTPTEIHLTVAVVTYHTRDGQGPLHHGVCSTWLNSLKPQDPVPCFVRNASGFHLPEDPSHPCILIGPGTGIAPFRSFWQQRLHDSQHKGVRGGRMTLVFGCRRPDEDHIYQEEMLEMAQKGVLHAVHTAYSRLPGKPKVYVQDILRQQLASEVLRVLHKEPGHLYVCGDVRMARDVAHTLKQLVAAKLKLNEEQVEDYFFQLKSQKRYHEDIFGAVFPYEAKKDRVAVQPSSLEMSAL
The target in data set [9] is Nitric oxide synthase 1 (Rattus norvegicus, UniProt P29476).
Nitric oxide synthase 1 (Rattus norvegicus, UniProt P29476), sequence (P29476 whole entry): as the sequence (P29476 whole entry D597N) above, with N597D counted along it

The term Ki denotes the dissociation constant of the complex between target and ligand, obtained from inhibition or displacement. Higher therefore signals a looser hold on the target. One may read the half-life as how long it takes for the measured level to halve. The low end stands for rapid decline, the high end for slow decline. For orientation: share remaining means the share of the starting amount still present when the sample was taken. A higher share remaining goes with less turnover. As usually defined, the CLint scaled is a measure of how fast metabolising enzymes remove a compound, apart from limits set by blood flow.

Structures are written as SMILES.

Nitric oxide synthase 1 (Homo sapiens, UniProt P29475), sequence (P29475 whole entry): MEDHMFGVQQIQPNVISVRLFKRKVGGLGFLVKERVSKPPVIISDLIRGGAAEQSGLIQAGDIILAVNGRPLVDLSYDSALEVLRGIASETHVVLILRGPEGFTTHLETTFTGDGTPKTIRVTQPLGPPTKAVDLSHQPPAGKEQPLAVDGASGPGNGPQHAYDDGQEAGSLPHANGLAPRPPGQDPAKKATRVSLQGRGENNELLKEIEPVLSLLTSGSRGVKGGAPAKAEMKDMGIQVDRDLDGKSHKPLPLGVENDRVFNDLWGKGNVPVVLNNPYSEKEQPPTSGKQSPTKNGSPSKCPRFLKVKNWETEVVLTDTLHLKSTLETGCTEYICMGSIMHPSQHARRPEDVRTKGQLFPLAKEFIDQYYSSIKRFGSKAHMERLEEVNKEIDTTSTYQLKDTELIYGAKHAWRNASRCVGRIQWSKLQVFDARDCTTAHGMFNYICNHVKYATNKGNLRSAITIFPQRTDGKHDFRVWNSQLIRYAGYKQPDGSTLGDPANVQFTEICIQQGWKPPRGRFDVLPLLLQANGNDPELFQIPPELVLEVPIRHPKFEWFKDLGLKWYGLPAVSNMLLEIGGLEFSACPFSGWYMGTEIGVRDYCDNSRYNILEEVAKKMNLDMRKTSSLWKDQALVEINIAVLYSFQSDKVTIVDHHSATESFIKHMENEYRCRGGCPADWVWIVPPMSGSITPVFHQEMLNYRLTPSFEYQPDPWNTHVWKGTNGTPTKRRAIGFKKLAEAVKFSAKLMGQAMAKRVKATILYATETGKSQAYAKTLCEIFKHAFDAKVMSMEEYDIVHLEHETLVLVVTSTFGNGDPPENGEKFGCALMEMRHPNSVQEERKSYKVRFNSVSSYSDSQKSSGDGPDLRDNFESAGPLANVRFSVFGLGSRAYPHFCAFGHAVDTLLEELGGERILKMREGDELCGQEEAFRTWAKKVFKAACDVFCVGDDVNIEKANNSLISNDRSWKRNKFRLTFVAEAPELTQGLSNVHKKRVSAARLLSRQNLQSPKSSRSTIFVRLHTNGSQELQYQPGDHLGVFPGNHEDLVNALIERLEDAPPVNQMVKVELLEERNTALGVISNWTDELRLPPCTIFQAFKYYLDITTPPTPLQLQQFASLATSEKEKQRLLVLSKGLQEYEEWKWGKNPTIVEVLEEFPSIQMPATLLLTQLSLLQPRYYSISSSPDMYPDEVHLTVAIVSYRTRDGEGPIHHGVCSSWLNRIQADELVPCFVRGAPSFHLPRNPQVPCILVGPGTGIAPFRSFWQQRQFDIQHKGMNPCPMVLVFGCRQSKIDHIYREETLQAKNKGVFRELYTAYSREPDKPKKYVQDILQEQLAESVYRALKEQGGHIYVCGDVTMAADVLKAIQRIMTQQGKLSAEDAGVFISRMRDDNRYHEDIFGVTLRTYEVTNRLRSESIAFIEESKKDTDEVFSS

For `Cc1cc(N)nc2cc(-c3cccc(CN)c3)ccc12.Cl.Cl`, the Ki in data set [1] was 0.06 µM; in [4] it was 0.416 µM; in data set [5] it was 52.6 µM; in data set [8], 29.9 µM; in data set [9], 0.055 µM. In data set [2], this compound yielded a half-life at 1 h, 1.426 µM of more than 1 h. In addition, the share remaining at 1 h, 1.426 µM was determined as 87% in data set [3] and 67% in [6]. Further, in data set [7], the CLint scaled at 1 h, 1.426 µM stood at 8 mL/min/kg.
